Results from patent US6340694B1, “Diarylbenzopyran derivatives as cyclooxygenase-2 inhibitors” (Pacific Corporation, priority 1998, dated 2002).

What was measured:
COX-2 = molecular target: T1, COX-2 (Mus musculus, UniProt Q05769); experiment: Evaluation of COX-2's inhibition efficacy (PGE2 radioimmuno assay, LPS-induced, aspirin-pretreated peritoneal macrophages); format: cell-based, C57BL/6 mouse
T1 construct: endogenous in cells; host or cells: peritoneal macrophages of C57BL/6 mouse, aspirin-pretreated, LPS-induced
T1 sequence (Q05769 18-604): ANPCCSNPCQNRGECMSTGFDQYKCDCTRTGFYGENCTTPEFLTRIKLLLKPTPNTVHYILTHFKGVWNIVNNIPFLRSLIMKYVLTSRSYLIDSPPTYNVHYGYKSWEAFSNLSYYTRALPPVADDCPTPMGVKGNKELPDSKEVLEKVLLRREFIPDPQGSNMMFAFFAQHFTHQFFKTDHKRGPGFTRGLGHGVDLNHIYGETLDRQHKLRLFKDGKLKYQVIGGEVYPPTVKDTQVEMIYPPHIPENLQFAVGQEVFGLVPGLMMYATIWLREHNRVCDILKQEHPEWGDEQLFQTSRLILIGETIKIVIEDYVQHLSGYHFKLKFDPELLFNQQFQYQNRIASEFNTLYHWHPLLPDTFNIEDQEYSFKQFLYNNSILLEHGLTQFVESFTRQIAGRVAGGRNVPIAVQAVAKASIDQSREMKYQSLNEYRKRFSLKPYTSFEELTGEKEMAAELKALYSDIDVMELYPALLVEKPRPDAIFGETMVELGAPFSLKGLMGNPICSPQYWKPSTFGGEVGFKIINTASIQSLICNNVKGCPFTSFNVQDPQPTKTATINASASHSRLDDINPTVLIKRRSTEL
Experimental: Regarding the compounds in the above Examples and indomethacin, the inhibition efficacy of COX-2 and COX-1 are being measured by the following two methods. […] Evaluation of COX-2's Inhibition Efficacy (J. Pharmacol. Exp. […] After cleaning C57BL/6 mouse's abdomen by 70% EtOH, the skin of mouse's abdomen was eliminated cautiously not to harm peritomeum and 5 ml of cold PBS was poured into the abdominal cavity and in certain times later macrophage-bleeding abdominal-liquid was collected by syringe. […] After putting 1 ml cell suspension having cell number of 1×10^6 cells/mu into each 24-well microtiter plates, macrophages were adhered to the bottom of plate by culturing in the condition of 5% CO2/95% O2, at a temperature of 37° C. for 2 hours. Other cells not being adhered to were eliminated by washing two times with PBS. The purity of macrophages obtained through this process was identified by differential counting. […] After inducing COX-2 by LPS, the cell culture medium was eliminated and macrophages was washed two times with PBS. And 1 ml of RRPI-1640 badge was added to each well again and after treating them with sample with appropriate concentration, they were cultured at a temperature of 37i É for 10 minutes. And then treated them with arachidonic acid to make their final concentration as 10 μM and cultured them additional 10 minutes, all the supernatant liquid of reaction was obtained. The amount of PGE2 produced in the supernatant liquid of reaction was determined by the PGE2 radioimmuno assay.

COX-1 = molecular target: T2, COX-1 (Mus musculus, UniProt P22437); experiment: Evaluation of COX-1's inhibition efficacy (macrophages without aspirin and LPS pre-treatment); format: cell-based, C57BL/6 mouse
T2 construct: there is no pre-treatment of aspirin and LPS in the adhesion of macrophage; endogenous in cells; host or cells: peritoneal macrophages of C57BL/6 mouse, without aspirin and LPS pre-treatment
T2 sequence (P22437 27-602): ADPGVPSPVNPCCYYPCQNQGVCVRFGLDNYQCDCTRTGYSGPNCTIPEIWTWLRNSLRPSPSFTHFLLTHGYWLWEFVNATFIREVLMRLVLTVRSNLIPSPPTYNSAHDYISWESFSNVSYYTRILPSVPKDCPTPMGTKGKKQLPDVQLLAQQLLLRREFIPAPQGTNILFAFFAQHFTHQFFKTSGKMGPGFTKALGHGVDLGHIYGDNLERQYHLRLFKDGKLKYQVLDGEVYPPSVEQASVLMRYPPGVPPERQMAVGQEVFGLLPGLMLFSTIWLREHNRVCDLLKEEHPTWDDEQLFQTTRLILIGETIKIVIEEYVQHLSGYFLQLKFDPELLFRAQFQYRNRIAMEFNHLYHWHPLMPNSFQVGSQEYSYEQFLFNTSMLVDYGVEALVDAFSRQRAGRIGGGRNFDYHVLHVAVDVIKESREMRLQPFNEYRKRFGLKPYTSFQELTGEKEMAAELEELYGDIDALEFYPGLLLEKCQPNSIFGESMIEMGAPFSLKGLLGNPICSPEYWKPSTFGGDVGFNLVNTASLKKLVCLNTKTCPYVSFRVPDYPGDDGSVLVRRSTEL
Experimental: Regarding the compounds in the above Examples and indomethacin, the inhibition efficacy of COX-2 and COX-1 are being measured by the following two methods.
After cleaning C57BL/6 mouse's abdomen by 70% EtOH, the skin of mouse's abdomen was eliminated cautiously not to harm peritomeum and 5 ml of cold PBS was poured into the abdominal cavity and in certain times later macrophage-bleeding abdominal-liquid was collected by syringe. By adding RPMI-1640 badge containing penicillin(100 unit/mt) and streptomycin([…]) to cell pellet obtained by centrifugation of collected liquid about 5 minutes in 1500 rpm, it was disperesed and also COX-1 existing in the cell was inactivated by treating with 500 μM aspirin. After putting 1 ml cell suspension having cell number of 1×10^6 cells/mu into each 24-well microtiter plates, macrophages were adhered to the bottom of plate by culturing in the condition of 5% CO2/95% O2, at a temperature of 37° C. for 2 hours. Other cells not being adhered to were eliminated by washing two times with PBS. The purity of macrophages obtained through this process was identified by differential counting. After adding RPMI-1640 badge(normally 5×10^5 cell/ml) containing 3% right fetal blood serum to macrophage and treating it with LPS(lipopolysaccharide) to make final concentration as 10 μg/ml, it was cultured in the condition of 5% CO2, at a temperature of 37° C. for 16 hours. After inducing COX-2 by LPS, the cell culture medium was eliminated and macrophages was washed two times with PBS. And 1 ml of RRPI-1640 badge was added to each well again and after treating them with sample with appropriate concentration, they were cultured at a temperature of 37i É for 10 minutes. And then treated them with arachidonic acid to make their final concentration as 10 μM and cultured them additional 10 minutes, all the supernatant liquid of reaction was obtained. The amount of PGE2 produced in the supernatant liquid of reaction was determined by the PGE2 radioimmuno assay. The 100% COX-2's activation is referenced by the difference of the amount of PGE2 produced in the supernatant liquid of reaction between with 10 μM arachidonic acid treatment and without 10 μM arachidonic acid treatment.
2. Evaluation of COX-1's Inhibition Efficacy
Following the same procedure as the above evaluation of COX-2's inhibition efficacy, but there is no pre-treatment of aspirin and LPS in the adhesion of macrophage.

Row | SMILES | inhibition at 0.1 µg/mL (COX-2; 0.1 μg/ml) | inhibition at 1 µg/mL (COX-2; 1 μg/ml) | inhibition at 10 µg/mL (COX-2; 10 μg/ml) | inhibition at 10 µg/mL (COX-1; 10 μg/ml) | inhibition at 1 µg/mL (COX-1; 1 μg/ml) | further results
1 | CS(=O)(=O)c1ccc(-c2oc3ccccc3c(=O)c2-c2cccc(Cl)c2Cl)cc1 [Example 14, 3-(2,3-Dichlorophenyl)-2-(4-(methylsulfonyl)phenyl)-4H-1-benzopyran-4-one] | 18% | 32% | 71% | – | – | –
2 | Cc1cccc(-c2c(-c3ccc(S(C)(=O)=O)cc3)oc3ccccc3c2=O)c1 [Example 22, 3-(3-Methylphenyl)-2-(4-(methylsulfonyl)phenyl)-4H-1-benzopyran-4-one] | 14% | 82% | 90% | – | – | –
3 | Cc1ccccc1-c1c(-c2ccc(S(C)(=O)=O)cc2)oc2ccccc2c1=O [Example 23, 3-(2-Methylphenyl)-2-(4-(methylsulfonyl)phenyl)-4H-1-benzopyran-4-one] | 23% | 84% | 97% | – | – | –
4 | CS(=O)(=O)c1ccc(-c2oc3ccccc3c(=O)c2-c2cccc(Cl)c2)cc1 [Example 24, 3-(3-Chlorophenyl)-2-(4-(methylsulfonyl)phenyl)-4H-1-benzopyran-4-one] | 22% | 86% | 95% | – | – | –
5 | CS(=O)(=O)c1ccc(-c2oc3ccccc3c(=O)c2-c2ccccn2)cc1 [Example 33, 2-(4-(Methylsulfonyl)phenyl)-3-(2-pyridinyl)-4H-1-benzopyran-4-one] | – | 27% | 44% | 17% | – | –
6 | NS(=O)(=O)c1ccc(-c2oc3ccc(F)cc3c(=O)c2-c2ccccc2)cc1 [Example 47, 2-(4-(Aminosulfonyl)phenyl)-6-fluoro-3-phenyl-4H-1-benzopyran-4-one] | 23% | 86% | – | – | – | –
7 | NS(=O)(=O)c1ccc(-c2oc3ccccc3c(=O)c2-c2ccc3c(c2)OCO3)cc1 [Example 54, 2-(4-(Aminosulfonyl)phenyl)-3-((3,4-methylenedioxy)phenyl)-4H-1-benzopyran-4-one] | – | – | – | – | – | Inhibition (%) COX-2 (COX-2; 0.1 μg/ml): 20%; Inhibition (%) COX-2 (COX-2; 1 μg/ml): 84%; Inhibition (%) COX-1 (COX-1; 10 μg/ml): 75%
8 | CSc1ccc(-c2c(-c3ccc(S(N)(=O)=O)cc3)oc3ccccc3c2=O)cc1 [Example 56, 2-(4-(Aminosulfonyl)phenyl)-3-((4-methylthio)phenyl)-4H-1-benzopyran-4-one] | – | – | – | – | – | Inhibition (%) COX-2 (COX-2; 0.1 μg/ml): 53%; Inhibition (%) COX-2 (COX-2; 1 μg/ml): 84%; Inhibition (%) COX-2 (COX-2; 10 μg/ml): 90%; Inhibition (%) COX-1 (COX-1; 1 μg/ml): 77%; Inhibition (%) COX-1 (COX-1; 10 μg/ml): 90%
9 | NS(=O)(=O)c1ccc(-c2oc3cc(F)ccc3c(=O)c2-c2ccc(F)cc2)cc1 [Example 59, 2-(4-(Aminosulfonyl)phenyl)-7-fluoro-3-(4-fluorophenyl)-4H-1-benzopyran-4-one] | 39% | 100% | – | – | – | –
10 | NS(=O)(=O)c1ccc(-c2oc3cc(F)ccc3c(=O)c2-c2ccccc2F)cc1 [Example 60, 2-(4-(Aminosulfonyl)phenyl)-7-fluoro-3-(2-fluorophenyl)-4H-1-benzopyran-4-one] | 43% | 100% | – | – | – | –
11 | NS(=O)(=O)c1ccc(-c2oc3cc(F)ccc3c(=O)c2-c2cccc(F)c2)cc1 [Example 61, 2-(4-(Aminosulfonyl)phenyl)-7-fluoro-3-(3-fluorophenyl)-4H-1-benzopyran-4-one] | 69% | 97% | – | 38% | 22% | –
12 | NS(=O)(=O)c1ccc(-c2oc3cc(F)ccc3c(=O)c2-c2ccc(Cl)c(Cl)c2)cc1 [Example 62, 2-(4-(Aminosulfonyl)phenyl)-7-fluoro-3-(3,4-dichlorophenyl)-4H-1-benzopyran-4-one] | 89% | 100% | – | 76% | 54% | –
13 | COc1ccc2c(=O)c(-c3ccc(F)cc3)c(-c3ccc(S(N)(=O)=O)cc3)oc2c1 [Example 64, 2-(4-(Aminosulfonyl)phenyl)-7-methoxy-3-(4-fluorophenyl)-4H-1-benzopyran-4-one] | < 5% | 52% | 47% | – | – | –
14 | COc1ccc(Cl)c2oc(-c3ccc(S(N)(=O)=O)cc3)c(-c3ccc(F)cc3)c(=O)c12 [Example 65, 2-(4-(Aminosulfonyl)phenyl)-8-chloro-3-(4-fluorophenyl)-5-methoxy-4H-1-benzopyran-4-one] | – | 67% | 93% | 73% | 24% | –
15 | NS(=O)(=O)c1ccc(-c2oc3c(Cl)ccc(O)c3c(=O)c2-c2ccc(F)cc2)cc1 [Example 66, 2-(4-(Aminosulfonyl)phenyl)-8-chloro-3-(4-fluorophenyl)-5-hydroxy-4H-1-benzopyran-4-one] | – | 83% | 90% | 80% | 40% | –
16 | NS(=O)(=O)c1ccc(-c2oc3ccc(F)cc3c(=S)c2-c2ccc(F)cc2)cc1 [Example 68, 2-(4-(Aminosulfonyl)phenyl)-6-fluoro-3-(4-fluorophenyl)-4H-1-benzopyran-4-thione] | 89% | 100% | – | 83% | 58% | –
17 | NS(=O)(=O)c1ccc(-c2oc3ccccc3c(=S)c2-c2ccc(F)cc2)cc1 [Example 69, 2-(4-(Aminosulfonyl)phenyl)-3-(4-fluorophenyl)-4H-1-benzopyran-4-thione] | 42% | 98% | 100% | 90% | 68% | –
